Laboratory results published in patent publication US20080227809A1, “Arylalkylamine Vanadium (V) Salts for the Treatment and/or Prevention of Diabetes Mellitus” (GENMEDICA THERAPEUTICS SL, priority 2004, published 2008).
Entries after “also recorded” stand apart in the source; their conditions may differ.

How the values were obtained:
[1] = test system: adipocytes from treated diabetic rats; test: glucose transport in adipocytes isolated from chronically treated diabetic rats; format: in vivo, rat; details: fourteen days of treatment
[2] = test system: streptozotocin-induced diabetic rats; test: chronic subcutaneous (osmotic minipump) treatment, glycemia of streptozotocin (45 mg/kg) diabetic rats; format: in vivo, rat; details: for effect on glycemia: 2.5 μmol/kg/day subcutaneous by osmotic minipumps, about two weeks
Method: Insulin concentrations were determined before and after treatment.
The effect of chronic administration of hexaquis(benzylammonium) decavanadate on glycemia from diabetic rats was determined. Thus, diabetes was induced in rats by intravenous administration of streptozotocin, which destroys the β-pancreatic cells that produce insulin.
Chronic in vivo efficacy of B6V10 was evaluated in streptozotocin-induced diabetic rats and in db/db mice. Streptozotocin-induced (45 mg/kg) diabetic rats were subcutaneously treated with hexaquis(benzylammonium) decavanadate (2.5 μmol/kg) (B6V10, solid squares, FIG. 8A) or with decavanadate (2.5 μmol/kg) (V10, open circles, FIG. 8A) delivered subcutaneously by osmotic minipumps implanted in the dorsal region. Diabetic rats were also sham-operated (untreated, solid diamonds, FIG. 8A). […] These experiments were repeated using an oral administration protocol. Streptozotocin-induced (45 mg/kg) diabetic rats were orally treated with hexaquis(benzylammonium) decavanadate (5 μmol/kg from day 0 to day 7 and 10 μmol/kg/day from day 7 to day 17) (B6V10, solid squares, FIG. 8B) or received decavanadate (10 μmol/kg) (V10, open circles, FIG. 8B). Nondiabetic rats were also untreated (solid triangles, FIG. 8B).

high-fat fed mice = test: glucose tolerance and plasma insulin in high-fat fed mice; format: in vivo, mouse
Method: Insulin and glucose responses during the glucose tolerance test were calculated as the incremental plasma values integrated over a period of 120 min after injection of glucose. Areas under curves of insulin and glucose responses were calculated using the Graph Prism program (SOURCE?). Data distribution was analyzed by the Kolmogorov-Smirnov test. Data were presented as mean ±SEM and unpaired Student's t test was used to compare two groups. When experimental series involved more than two groups, statistical analysis was done by one-way or two-way ANOVA and further post-hoc (Dunnett, Tukey or Bonferroni) t tests. Statistical analysis was performed with SPSS 11.0 or GraphPad Prism 4 programs.

isolated rat adipocytes = test: glucose transport (2-deoxyglucose uptake) in isolated rat adipocytes; format: cell-based; details: for stimulatory effect on glucose transport in the presence of semicarbazide: 1 mM semicarbazide (SSAO inhibitor); for stimulation of glucose transport: 45 min incubation
Method: In order to determine whether salts formed by vanadate and benzylamine could produce an insulin mimetic effect, the effect of increasing concentrations of hexaquis(benzylammonium) decavanadate on glucose transport activity in isolated rat adipocytes was tested. Hexaquis(benzylammonium) decavanadate induced the stimulation of glucose transport which was perceptible from concentrations of 0.5 μM, with a maximal effect observed 2.5 μM and the semimaximal effect above 1 μM. […] The maximum effect provoked by incubation with hexaquis(benzylammonium) decavanadate was greater than that produced by the presence of benzylamine and vanadate in combination (FIG. 1). […] In similar assays, the activity of hexaquis(benzylammonium) decavanadate, pentaquis(benzylammonium) decavanadate and tetraquis(benzylammonium) decavanadate on glucose transport activity in isolated rat adipocytes were analyzed.
To determine the possible insulin mimetic effect of certain vanadium arylalkylamines, the capacity of these compounds to enhance glucose transport in isolated rat adipocytes was tested. Adipose cells from Wistar rats were incubated for 45 minutes in basal conditions (Basal) or in the presence of 100 nM insulin (Ins), and different concentrations of. hexaquis(benzylammonium) decavanadate (B6V10) in the absence or in the presence of 1 mM semicarbazide (SCZ). Subsequently, 2-DG transport was measured over a 5 min. interval.
The effects of the three tested compounds (B6V10, B5V10 and B4V10) were compared. Adipose cells from Wistar rats were incubated for 45 minutes in basal conditions (Basal) or in the presence of 100 nM insulin (Ins), and different concentrations of. decavanadate (V10), hexaquis(benzylammonium) decavanadate (B6V10), pentaquis(benzylammonium) decavanadate (B5V10) or tetraquis(benzylammonium) decavanadate (B4V10) in the absence or in the presence of 1 mM semicarbazide (SCZ). 2-DG transport was measured over 5 min. intervals. […] The stimulation of all three compounds on glucose transport was blocked in the presence of semicarbazide.
In additional experiments, compounds shown in FIG. 6A (named 2-(4-fluoro-phenyl)-ethylamine (compound A), 3-phenyl-propylamine (compound B), 4-fluoro-benzylamine (compound C) and 4-phenyl-butylamine (compound D)) were assessed using the experimental methods set forth above for the capacity to stimulate 2-DG uptake in isolated rat adipocytes. Adipose cells from Wistar rats were incubated for 45 minutes in basal conditions (Basal) or in the presence of 100 nM insulin (Ins), and different concentrations of vanadium salts of 2-(4-fluoro-phenyl)-ethylamine (compound A), 3-phenyl-propylamine (compound B), 4-fluoro-benzylamine (compound C) and 4-phenyl-butylamine (compound D). 2-DG transport was measured over 5 min.
The effects of incubation with semicarbazide or phosphatidylinositol 3-kinase inhibitors were also investigated. Adipose cells were incubated with B6V10 (25 μM, 45 min) in the absence or presence of wortmannin (2 μM, 45 min), LY294002 (10 μM, 45 min) or semicarbazide (1 mM, 45 min) and thereafter 2-deoxyglucose uptake was determined during 5 min. Activation of protein kinase B phosphorylation induced by B6V10 was blocked by semicarbazide and it was not observed by decavanadate. In addition, phosphatidylinositol 3-kinase inhibitors wortmannin and LY294002 blocked B6V10-induced glucose transport (FIG. 7E).

[3] = listed as hexaquis(benzylammonium) decavanadate

EC50 (isolated rat adipocytes; isolated rat adipocytes, read-out: semimaximal effect on glucose transport): > 1000 nM
Substance: hexaquis(benzylammonium) decavanadate [Example B6V10]
glucose transport in adipocytes of treated rats under basal conditions [1]: increased glucose transport under basal conditions equivalent to that seen in the presence of insulin | time of treatment after which reduction of hyperglycemia was detected ([2]; 2.5 μmol/kg/day subcutaneous): four | effect on glycemia [2]: significant correction of hyperglycemia; also recorded: significant lowering in blood glucose levels; also recorded: ameliorated hyperglycemia | effect on glycemia [2, 3]: rapid reduction of the hyperglycemia | day of treatment from which glycemia differed significantly from the untreated group ([2]; Bonferroni post-tests, P<0.01, FIG. 8A): 8 | plasma insulin levels (high-fat fed mice; acute administration, mice made glucose intolerant by a high fat diet): improved plasma insulin levels; also recorded: ameliorated the pattern of plasma insulin levels | glucose tolerance (high-fat fed mice; high-fat fed mice): amelioration of glucose tolerance | stimulation of glucose transport compared with combination of 100 μM benzylamine and 100 μM vanadate (isolated rat adipocytes; 25 μM B6V10, data not shown): greater stimulation | stimulatory effect on glucose transport in the presence of semicarbazide (isolated rat adipocytes): completely blocked | stimulatory effect on glucose transport in the presence of semicarbazide (isolated rat adipocytes; [3]): completely blocked; also recorded: inhibited | maximum effect on glucose transport compared with benzylamine and vanadate in combination (isolated rat adipocytes; combination 100 μM sodium vanadate and 100 μM benzylamine (FIG. 1)): greater | maximal effect on glucose transport relative to the maximal stimulation caused by insulin (isolated rat adipocytes; insulin 100 nM): 85% | concentration at which maximal effect on glucose transport was observed (isolated rat adipocytes; isolated rat adipocytes): 2.5 µM | concentration from which stimulation of glucose transport was perceptible (isolated rat adipocytes; isolated rat adipocytes): 0.5 µM | stimulation of glucose transport (isolated rat adipocytes; isolated rat adipocytes): stimulated glucose transport in rat adipocytes in a concentration-dependent manner | stimulation of glucose transport (isolated rat adipocytes; isolated rat adipocytes, listed as hexaquis(benzylammonium) decavanadate): pronounced stimulation
